# Data as given in US20050282889A1, “Intracorporeal medicaments for photodynamic treatment of disease” (priority 1996, published 2005).
# System: not listed separately
# Test: Partition coefficient Kp, n-octanol / phosphate buffered saline
# Assay type: physicochemical
# Settings: ratio of equilibrium concentrations, n-octanol vs PBS pH=7.4
# Experimental: Kp is determined by measuring the ratio of equilibrium concentrations of an agent in a lipophilic phase (n-octanol) contacted with an aqueous phase (phosphate buffered saline, PBS, pH=7.4).
row,Compound,Kp (partition coefficient)
1,O=C([O-])c1c(Cl)c(Cl)c(Cl)c(Cl)c1-c1c2cc(Br)c(=O)c(Br)c-2oc2c(Br)c([O-])c(Br)cc12.[Na+].[Na+] [Phloxine B],1.1
2,O.O=C([O-])c1ccccc1-c1c2cc(I)c(=O)c(I)c-2oc2c(I)c([O-])c(I)cc12.[Na+].[Na+] [Erythrosin B],1.9

# System: not listed separately
# Test: Absorbance properties of halogenated xanthenes (λmax, α)
# Assay type: physicochemical
# Settings: not given
# Source text: Certain general properties of this class of agents are discussed in further detail in U.S. Ser. No. 09/130,041, filed on Aug. 6, 1998, U.S. Ser. No. 09/184,388, filed on Nov. 2, 1998, and U.S. Ser. No. 09/216,787, filed on Dec. 21, 1998, which are herein incorporated by reference in their entirety.
row,Compound,α
1,O=C([O-])c1c(Cl)c(Cl)c(Cl)c(Cl)c1-c1c2cc(Br)c(=O)c(Br)c-2oc2c(Br)c([O-])c(Br)cc12.[Na+].[Na+] [Phloxine B],100000 L/cm/mol
2,O.O=C([O-])c1ccccc1-c1c2cc(I)c(=O)c(I)c-2oc2c(I)c([O-])c(I)cc12.[Na+].[Na+] [Erythrosin B],91000 L/cm/mol
3,O=C([O-])c1ccccc1-c1c2cc(Br)c(=O)c(Br)c-2oc2c(Br)c([O-])c(Br)cc12.[Na+].[Na+] [Eosin Y],91000 L/cm/mol
4,CCOC(=O)c1ccccc1-c1c2cc(Br)c(=O)c(Br)c-2oc2c(Br)c([O-])c(Br)cc12.[K+] [Ethyl Eosin],11000 L/cm/mol
5,O=C(O)c1ccccc1-c1c2cc([N+](=O)[O-])c(=O)c(Br)c-2oc2c(Br)c(O)c([N+](=O)[O-])cc12 [Eosin B],39000 L/cm/mol
6,Diiodofluorescein,58000 L/cm/mol
7,"O=C1OC2(c3ccc(O)cc3Oc3cc(O)ccc32)c2c(Cl)c(Cl)c(Cl)c(Cl)c21 [4,5,6,7-Tetrachlorofluorescein]",29000 L/cm/mol
8,Dibromofluorescein,14000 L/cm/mol
9,O=C1OC2(c3ccc(O)cc3Oc3cc(O)ccc32)c2ccccc21 [Fluorescein],64000 L/cm/mol
10,O=C1OC2(c3ccccc31)c1ccc(O)c(Br)c1Oc1c2ccc(O)c1Br [Solvent Red 72],14000 L/cm/mol

# Same assay, conditions: EtOH
row,Compound,λmax (nm) EtOH
1,O=C([O-])c1c(Cl)c(Cl)c(Cl)c(Cl)c1-c1c2cc(Br)c(=O)c(Br)c-2oc2c(Br)c([O-])c(Br)cc12.[Na+].[Na+] [Phloxine B],548 nm
2,O.O=C([O-])c1ccccc1-c1c2cc(I)c(=O)c(I)c-2oc2c(I)c([O-])c(I)cc12.[Na+].[Na+] [Erythrosin B],532 nm
3,O=C([O-])c1ccccc1-c1c2cc(Br)c(=O)c(Br)c-2oc2c(Br)c([O-])c(Br)cc12.[Na+].[Na+] [Eosin Y],523 nm
4,"O=C1OC2(c3ccccc31)c1ccc(O)c(Cl)c1Oc1c2ccc(O)c1Cl [4′,5′-Dichlorofluorescein]",511 nm
5,CCOC(=O)c1ccccc1-c1c2cc(Br)c(=O)c(Br)c-2oc2c(Br)c([O-])c(Br)cc12.[K+] [Ethyl Eosin],532 nm
6,Diiodofluorescein,513 nm
7,CCN(CC)CC.CCOC(=O)c1c(Cl)c(Cl)c(Cl)c(Cl)c1-c1c2cc(I)c(=O)c(I)c-2oc2c(I)c(O)c(I)cc12 [Rose Bengal Derivative I],563 nm
8,Dibromofluorescein,510 nm
9,O=C1OC2(c3ccc(O)cc3Oc3cc(O)ccc32)c2ccccc21 [Fluorescein],499 nm
10,"O=C1OC2(c3ccccc31)c1cc(Cl)c(O)c(Cl)c1Oc1c2cc(Cl)c(O)c1Cl [2′,4′,5′,7′-Tetrachlorofluorescein]",520 nm
11,"O=C1OC2(c3cc(Cl)c(O)cc3Oc3cc(O)c(Cl)cc32)c2ccccc21 [2′,7′-Dichlorofluorescein]",511 nm

# Same assay, conditions: H2O
row,Compound,λmax (nm) H2O
1,O=C([O-])c1c(Cl)c(Cl)c(Cl)c(Cl)c1-c1c2cc(Br)c(=O)c(Br)c-2oc2c(Br)c([O-])c(Br)cc12.[Na+].[Na+] [Phloxine B],541 nm
2,O.O=C([O-])c1ccccc1-c1c2cc(I)c(=O)c(I)c-2oc2c(I)c([O-])c(I)cc12.[Na+].[Na+] [Erythrosin B],528 nm
3,O=C([O-])c1ccccc1-c1c2cc(Br)c(=O)c(Br)c-2oc2c(Br)c([O-])c(Br)cc12.[Na+].[Na+] [Eosin Y],517 nm
4,"O=C1OC2(c3ccccc31)c1ccc(O)c(Cl)c1Oc1c2ccc(O)c1Cl [4′,5′-Dichlorofluorescein]",502 nm
5,O=C(O)c1ccccc1-c1c2cc([N+](=O)[O-])c(=O)c(Br)c-2oc2c(Br)c(O)c([N+](=O)[O-])cc12 [Eosin B],522 nm
6,Diiodofluorescein,506 nm
7,"O=C1OC2(c3ccc(O)cc3Oc3cc(O)ccc32)c2c(Cl)c(Cl)c(Cl)c(Cl)c21 [4,5,6,7-Tetrachlorofluorescein]",515 nm
8,Dibromofluorescein,504 nm
9,O=C1OC2(c3ccc(O)cc3Oc3cc(O)ccc32)c2ccccc21 [Fluorescein],490 nm
10,"O=C1OC2(c3ccccc31)c1cc(Cl)c(O)c(Cl)c1Oc1c2cc(Cl)c(O)c1Cl [2′,4′,5′,7′-Tetrachlorofluorescein]",510 nm
11,"O=C1OC2(c3cc(Cl)c(O)cc3Oc3cc(O)c(Cl)cc32)c2ccccc21 [2′,7′-Dichlorofluorescein]",502 nm

# Same assay, conditions: MeOH
row,Compound,λmax (nm) MeOH
1,O=C([O-])c1c(Cl)c(Cl)c(Cl)c(Cl)c1-c1c2cc(Br)c(=O)c(Br)c-2oc2c(Br)c([O-])c(Br)cc12.[Na+].[Na+] [Phloxine B],547 nm
2,O.O=C([O-])c1ccccc1-c1c2cc(I)c(=O)c(I)c-2oc2c(I)c([O-])c(I)cc12.[Na+].[Na+] [Erythrosin B],529 nm
3,O=C([O-])c1ccccc1-c1c2cc(Br)c(=O)c(Br)c-2oc2c(Br)c([O-])c(Br)cc12.[Na+].[Na+] [Eosin Y],527 nm
4,O=C1OC2(c3ccc(O)cc3Oc3cc(O)ccc32)c2ccccc21 [Fluorescein],492 nm
5,O=C1OC2(c3ccccc31)c1ccc(O)c(Br)c1Oc1c2ccc(O)c1Br [Solvent Red 72],450 nm

# System: not listed separately
# Test: Photochemical quantum yields (triplet, singlet oxygen)
# Assay type: physicochemical
# Settings: EtOH
row,Compound,φ (singlet oxygen) EtOH
1,O=C([O-])c1c(Cl)c(Cl)c(Cl)c(Cl)c1-c1c2cc(Br)c(=O)c(Br)c-2oc2c(Br)c([O-])c(Br)cc12.[Na+].[Na+] [Phloxine B],0.63
2,O.O=C([O-])c1ccccc1-c1c2cc(I)c(=O)c(I)c-2oc2c(I)c([O-])c(I)cc12.[Na+].[Na+] [Erythrosin B],0.63
3,O=C([O-])c1ccccc1-c1c2cc(Br)c(=O)c(Br)c-2oc2c(Br)c([O-])c(Br)cc12.[Na+].[Na+] [Eosin Y],0.57
4,"O=C1OC2(c3ccccc31)c1ccc(O)c(Cl)c1Oc1c2ccc(O)c1Cl [4′,5′-Dichlorofluorescein]",0.07
5,Diiodofluorescein,0.48
6,Dibromofluorescein,0.42
7,O=C1OC2(c3ccc(O)cc3Oc3cc(O)ccc32)c2ccccc21 [Fluorescein],0.03
8,"O=C1OC2(c3ccccc31)c1cc(Cl)c(O)c(Cl)c1Oc1c2cc(Cl)c(O)c1Cl [2′,4′,5′,7′-Tetrachlorofluorescein]",0.05
9,"O=C1OC2(c3cc(Cl)c(O)cc3Oc3cc(O)c(Cl)cc32)c2ccccc21 [2′,7′-Dichlorofluorescein]",0.07

# Same assay, conditions: H2O
row,Compound,φ (singlet oxygen) H2O
1,O=C([O-])c1c(Cl)c(Cl)c(Cl)c(Cl)c1-c1c2cc(Br)c(=O)c(Br)c-2oc2c(Br)c([O-])c(Br)cc12.[Na+].[Na+] [Phloxine B],0.40
2,O.O=C([O-])c1ccccc1-c1c2cc(I)c(=O)c(I)c-2oc2c(I)c([O-])c(I)cc12.[Na+].[Na+] [Erythrosin B],0.69
3,O=C([O-])c1ccccc1-c1c2cc(Br)c(=O)c(Br)c-2oc2c(Br)c([O-])c(Br)cc12.[Na+].[Na+] [Eosin Y],0.32
4,"O=C1OC2(c3ccccc31)c1ccc(O)c(Cl)c1Oc1c2ccc(O)c1Cl [4′,5′-Dichlorofluorescein]",0.04
5,Diiodofluorescein,0.33
6,Dibromofluorescein,0.32
7,O=C1OC2(c3ccc(O)cc3Oc3cc(O)ccc32)c2ccccc21 [Fluorescein],0.03
8,"O=C1OC2(c3ccccc31)c1cc(Cl)c(O)c(Cl)c1Oc1c2cc(Cl)c(O)c1Cl [2′,4′,5′,7′-Tetrachlorofluorescein]",0.05
9,"O=C1OC2(c3cc(Cl)c(O)cc3Oc3cc(O)c(Cl)cc32)c2ccccc21 [2′,7′-Dichlorofluorescein]",0.04

# Same assay, conditions: MeOH
Compound,φ (singlet oxygen) MeOH,φ (triplet) MeOH
O.O=C([O-])c1ccccc1-c1c2cc(I)c(=O)c(I)c-2oc2c(I)c([O-])c(I)cc12.[Na+].[Na+] [Erythrosin B],0.62,0.62
O=C([O-])c1ccccc1-c1c2cc(Br)c(=O)c(Br)c-2oc2c(Br)c([O-])c(Br)cc12.[Na+].[Na+] [Eosin Y],0.39,0.28
CCN(CC)CC.CCOC(=O)c1c(Cl)c(Cl)c(Cl)c(Cl)c1-c1c2cc(I)c(=O)c(I)c-2oc2c(I)c(O)c(I)cc12 [Rose Bengal Derivative I],0.74,–
O=C1OC2(c3ccc(O)cc3Oc3cc(O)ccc32)c2ccccc21 [Fluorescein],0.09,0.03
CCN(CC)CC.CCN(CC)CC.O=C(O)c1c(Cl)c(Cl)c(Cl)c(Cl)c1-c1c2cc(I)c(=O)c(I)c-2oc2c(I)c(O)c(I)cc12 [Rose Bengal Derivative II],0.72,–

# System: Renal Adenocarcinoma
# Test: Intratumoral injection plus light, murine tumor model
# Assay type: in vivo
# Settings: No Light control, 0 J/cm^2; i.t. ICG medicament; tumor 3 × 4 × 5 mm
row,Compound,Cure Rate
1,"CC1(C)C(/C=C/C=C/C=C/C=C2\N(CCCCS(=O)(=O)O)c3ccc4ccccc4c3C2(C)C)=[N+](CCCCS(=O)(=O)[O-])c2ccc3ccccc3c21 [Indocyanine Green, reference compound]",0%

# Same assay, conditions: No Light control, 0 J/cm^2; i.t. ICG medicament; tumor 3 × 4 × 5 mm; 4 treated
row,Compound,No. Tumors Cured
1,"CC1(C)C(/C=C/C=C/C=C/C=C2\N(CCCCS(=O)(=O)O)c3ccc4ccccc4c3C2(C)C)=[N+](CCCCS(=O)(=O)[O-])c2ccc3ccccc3c21 [Indocyanine Green, reference compound]",0

# Same assay, conditions: i.t. ICG medicament; tumor 3 × 4 × 5 mm; 50 J/cm^2 805 nm
row,Compound,Cure Rate
1,"CC1(C)C(/C=C/C=C/C=C/C=C2\N(CCCCS(=O)(=O)O)c3ccc4ccccc4c3C2(C)C)=[N+](CCCCS(=O)(=O)[O-])c2ccc3ccccc3c21 [Indocyanine Green, reference compound]",0%

# Same assay, conditions: i.t. ICG medicament; tumor 3 × 4 × 5 mm; 50 J/cm^2 805 nm; 4 treated
row,Compound,No. Tumors Cured
1,"CC1(C)C(/C=C/C=C/C=C/C=C2\N(CCCCS(=O)(=O)O)c3ccc4ccccc4c3C2(C)C)=[N+](CCCCS(=O)(=O)[O-])c2ccc3ccccc3c21 [Indocyanine Green, reference compound]",0

# System: not listed separately
# Test: Retention of agent after intratumoral or peritumoral injection
# Settings: intratumoral injection (ICG: within 24 hours)
# Experimental: Initially, tumor cell suspensions (e.g. melanoma, breast tumor, liver tumor, renal carcinoma, gall bladder tumor or prostate tumor) were injected subcutaneously into the flanks of nude mice resulting in formation of primary tumors, within a few weeks, at the injection site having a volume of approximately 0.1 cm^3 to 0.5 cm^3.
row,Compound,Tissue localization after i.t. administration
1,"CC1(C)C(/C=C/C=C/C=C/C=C2\N(CCCCS(=O)(=O)O)c3ccc4ccccc4c3C2(C)C)=[N+](CCCCS(=O)(=O)[O-])c2ccc3ccccc3c21 [Indocyanine Green, reference compound]",substantively migrated out of the tumor
